Data taken from patent US10188756B2, “Imaging histone deacetylases with a radiotracer using positron emission tomography” (THE GENERAL HOSPITAL CORPORATION, priority 2013, dated 2019).
pIC50: −log10 of the molar value.

Columns and labels:
[1] = tested on: histone deacetylases; test: Baboon PET/MR imaging with [11C]CN133; format: in vivo, baboon (Papio anubis); settings: for VT (Ichese MAI), CN147 blocked / VT (Logan Plot), CN147 blocked: [11C]CN133 VT after CN147 0.5 mg/kg intravenous; for VT (Ichese MAI), % Difference / VT (Logan Plot), % Difference: baseline vs CN147 blocked
Description: A female Papio Anubis baboon, deprived of food for 12 hours prior to the study, was administered intramuscular ketamine (10 mg/kg) and intubated. For maintenance of anesthesia throughout the study, the baboon was provided 1%-4% isoflurane (Forane) in a mixture of medical oxygen and nitrogen. The baboon was catheterized antecubitally for radiotracer injection and a radial arterial line was placed for metabolite analysis. MR-PET images were acquired in a BiographmMR scanner (Siemens, Munich, Germany), and PET compatible 8-channel coil arrays for non-human primate brain imaging with a PET resolution of 5 mm and field of view of 59.4 cm and 25.8 cm (transaxial and axial, respectively). Dynamic PET image acquisition was initiated followed by administration of the radiotracer in a homogenous solution of 10% ethanol and 90% isotonic saline. An […] sequence began after 30 minutes of the baseline scan for anatomic coregistration. […] Both scans were carried out in the same animal on the same day, separated by 2.5 hours. In both scans, 4-5 mCi of [^11C]CN133 was administered to the baboon. Dynamic data from the PET scans were recorded in list mode and corrected for attenuation. Baboon data were reconstructed using a 3D-OSEM method resulting in a full width at half-maximum resolution of 4 mm.
Volumes of interest (VOIs) were drawn manually as spheres in brain regions guided by high resolution MR structural images and summed PET data, with a radius no less than 4 mm. A common VOI mask was applied to both baboon scans. Time-activity curves (TACs) were exported in terms of decay corrected activity per unit volume at specified time points with gradually increasing intervals. The TACs were expressed as percent injected dose per unit volume for analysis.
Arterial samples collected during imaging from the baboon were centrifuged to obtain plasma, which was then removed and placed in an automated gamma counter that was calibrated to the PET scanner. Metabolite analysis was conducted on a custom automated robot fitted with Phenomenex SPE Strata-X 500 mg solid phase extraction cartridges that were primed with ethanol (2 mL) and deionized water (20 mL). Protein precipitation was achieved by addition of plasma (300 μL) to acetonitrile (300 μL), which was centrifuged for 1 minute to obtain protein-free plasma (PFP). 300 μL of PFP/acetonitrile solution was diluted into deionized water (3 mL), loaded onto the C18 cartridge, and removed of polar metabolites with 100% water. Next, a series of extractions were performed using water and acetonitrile in quantities: 95:5, 90:10, 85:15, 80:20, 70:30, 60:40, 30:70 and 100% acetonitrile at a volume of 4 mL. A control experiment was performed before metabolite analysis to determine the retention of the parent compound by injection of a small amount of [^11C]CN133 onto a test series of extraction cartridges. Each sample was counted in a WIZARD2 Automatic Gamma Counter to determine the presence of radiolabeled metabolites.
CN147 blocks ˜40% of [^11C]CN133 binding in NHP whole brain and in cerebellum. Plasma-normalized data were evaluated by volume of interest analysis (VOI) at the whole brain level and at level of the cerebellum. VOI data were then applied to distribution volume (VT) data analysis by two graphical methods using PMOD software, tabulated in Tables A and B below. Logan Plot and Ichese MAI methods were clarified from previous NHP imaging analyses to provide an accurate VT estimate (+/− standard error) from data beginning 35 min after injection of radiotracer (t*=35 min) until the end of the scan (t=80min).

[2] = biological target: HDAC3 (Homo sapiens (Human), UniProt O15379); test: HDAC inhibition assay; settings: read-out: IC50 HDAC3
HDAC3, sequence (O15379 whole entry): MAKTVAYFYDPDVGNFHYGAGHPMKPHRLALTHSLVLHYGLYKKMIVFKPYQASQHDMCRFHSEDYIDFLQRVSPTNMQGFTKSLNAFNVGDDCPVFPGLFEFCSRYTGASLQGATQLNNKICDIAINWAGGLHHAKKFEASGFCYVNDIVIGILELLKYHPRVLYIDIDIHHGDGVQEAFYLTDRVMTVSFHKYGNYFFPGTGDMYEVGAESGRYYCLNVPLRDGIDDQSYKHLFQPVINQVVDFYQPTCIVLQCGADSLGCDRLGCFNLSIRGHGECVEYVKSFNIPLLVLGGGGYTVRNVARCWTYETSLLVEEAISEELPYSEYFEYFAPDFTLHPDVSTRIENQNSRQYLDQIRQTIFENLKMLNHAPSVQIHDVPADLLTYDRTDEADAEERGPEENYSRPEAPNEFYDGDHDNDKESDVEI
HDAC3, sequence (Q9Y618 395-489 partner): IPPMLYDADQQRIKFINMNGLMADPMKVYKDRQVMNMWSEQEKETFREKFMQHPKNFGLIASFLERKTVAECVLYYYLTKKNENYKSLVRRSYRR
Description: (§2) All histone deacetylases were purchased from BPS Bioscience. […] All the other reagents were purchased from Sigma-Aldrich. Caliper EZ reader II system was used to collect all data. […] Purified HDACs were incubated with 2 μM carboxyfluorescein (FAM)-labeled acetylated or trifluoroacetylated peptide substrate (Broad Substrate A and B respectively) and test compound for 60 minutes at room temperature, in HDAC assay buffer that contained 50 mM HEPES (pH 7.4), 100 mM KCl, 0.01% BSA and 0.001% Tween-20. […] Substrate and product were separated electrophoretically and fluorescence intensity in the substrate and product peaks was determined and analyzed by Labchip EZ Reader. The reactions were performed in duplicate for each sample. IC50 values were automatically calculated by Origin 8 using 4 Parameter Logistic Model. The percent inhibition was plotted against the compound concentration, and the IC50 value was determined from the logistic dose-response curve fitting by Origin 8.0 software.

[3] = biological target: HDAC9 (Homo sapiens (Human), UniProt Q9UKV0); test: HDAC inhibition assay; settings: read-out: IC50 HDAC9
HDAC9, sequence (Q9UKV0 whole entry): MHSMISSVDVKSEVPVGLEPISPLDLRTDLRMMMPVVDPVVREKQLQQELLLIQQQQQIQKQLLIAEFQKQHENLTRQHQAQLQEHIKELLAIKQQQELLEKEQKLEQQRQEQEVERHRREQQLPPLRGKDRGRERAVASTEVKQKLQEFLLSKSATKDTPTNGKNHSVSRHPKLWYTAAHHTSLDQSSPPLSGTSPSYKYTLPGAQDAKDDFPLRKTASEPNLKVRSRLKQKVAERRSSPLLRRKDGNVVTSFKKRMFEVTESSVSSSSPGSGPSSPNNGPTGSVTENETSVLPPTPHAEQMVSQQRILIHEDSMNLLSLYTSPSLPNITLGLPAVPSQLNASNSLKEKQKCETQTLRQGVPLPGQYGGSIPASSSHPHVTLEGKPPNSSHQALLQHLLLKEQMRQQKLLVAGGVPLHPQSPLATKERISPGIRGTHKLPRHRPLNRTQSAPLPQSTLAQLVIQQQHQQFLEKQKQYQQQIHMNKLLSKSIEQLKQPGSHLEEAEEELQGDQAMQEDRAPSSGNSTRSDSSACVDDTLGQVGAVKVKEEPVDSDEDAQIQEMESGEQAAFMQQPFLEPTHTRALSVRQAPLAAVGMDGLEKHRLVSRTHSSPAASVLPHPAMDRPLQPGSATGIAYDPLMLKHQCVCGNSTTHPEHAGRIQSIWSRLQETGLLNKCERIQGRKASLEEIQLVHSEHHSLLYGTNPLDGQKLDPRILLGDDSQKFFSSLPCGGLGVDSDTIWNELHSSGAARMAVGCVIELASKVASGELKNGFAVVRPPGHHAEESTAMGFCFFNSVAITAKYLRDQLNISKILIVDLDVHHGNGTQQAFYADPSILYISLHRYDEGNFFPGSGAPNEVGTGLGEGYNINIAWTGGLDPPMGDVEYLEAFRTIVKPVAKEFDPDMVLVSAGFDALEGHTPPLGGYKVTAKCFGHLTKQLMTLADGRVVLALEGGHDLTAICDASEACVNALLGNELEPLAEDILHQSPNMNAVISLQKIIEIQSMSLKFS
Description: as §2

[4] = biological target: HDAC5 (Homo sapiens (Human), UniProt Q9UQL6); test: HDAC inhibition assay; settings: read-out: IC50 HDAC5
HDAC5, sequence (Q9UQL6 whole entry): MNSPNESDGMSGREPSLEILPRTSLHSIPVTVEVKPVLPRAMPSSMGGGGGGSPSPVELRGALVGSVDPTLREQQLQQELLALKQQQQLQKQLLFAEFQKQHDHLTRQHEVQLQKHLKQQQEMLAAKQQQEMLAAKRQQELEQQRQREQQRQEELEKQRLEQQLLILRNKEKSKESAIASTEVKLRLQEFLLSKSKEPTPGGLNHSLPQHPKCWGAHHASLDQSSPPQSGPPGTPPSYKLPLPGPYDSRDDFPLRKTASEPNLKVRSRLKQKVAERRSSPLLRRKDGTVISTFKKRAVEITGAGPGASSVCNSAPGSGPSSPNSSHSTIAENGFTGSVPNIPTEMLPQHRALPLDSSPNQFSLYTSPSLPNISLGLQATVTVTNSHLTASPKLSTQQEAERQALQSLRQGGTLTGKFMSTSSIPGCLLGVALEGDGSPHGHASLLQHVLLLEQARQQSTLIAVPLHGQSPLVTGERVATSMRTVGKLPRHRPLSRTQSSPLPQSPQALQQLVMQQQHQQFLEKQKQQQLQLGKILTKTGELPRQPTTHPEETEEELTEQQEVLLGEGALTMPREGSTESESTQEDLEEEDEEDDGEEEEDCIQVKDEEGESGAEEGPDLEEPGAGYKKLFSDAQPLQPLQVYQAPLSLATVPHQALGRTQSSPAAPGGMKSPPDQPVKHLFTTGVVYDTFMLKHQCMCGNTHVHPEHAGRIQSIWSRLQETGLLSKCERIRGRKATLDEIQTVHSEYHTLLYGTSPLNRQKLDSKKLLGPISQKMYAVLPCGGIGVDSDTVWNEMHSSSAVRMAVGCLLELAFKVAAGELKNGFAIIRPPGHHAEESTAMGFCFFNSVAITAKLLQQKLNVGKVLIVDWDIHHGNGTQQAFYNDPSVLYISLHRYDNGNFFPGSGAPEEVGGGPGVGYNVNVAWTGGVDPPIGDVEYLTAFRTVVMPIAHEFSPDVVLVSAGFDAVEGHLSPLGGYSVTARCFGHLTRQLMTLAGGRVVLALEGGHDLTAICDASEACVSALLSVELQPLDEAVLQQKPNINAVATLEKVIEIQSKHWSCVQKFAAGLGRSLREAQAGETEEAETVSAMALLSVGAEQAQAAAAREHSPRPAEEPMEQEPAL
Description: as §2

[5] = biological target: HDAC8 (Homo sapiens (Human), UniProt Q9BY41); test: HDAC inhibition assay; format: biochemical
Description: (§1) All histone deacetylases were purchased from BPS Bioscience. […] All the other reagents were purchased from Sigma-Aldrich.

[6] = biological target: HDAC6 (Homo sapiens (Human), UniProt Q9UBN7); test: HDAC inhibition assay; format: biochemical
Description: as §1

[7] = biological target: HDAC1 (Homo sapiens (Human), UniProt Q13547); test: HDAC inhibition assay; settings: read-out: IC50 HDAC1
HDAC1, sequence (Q13547 whole entry): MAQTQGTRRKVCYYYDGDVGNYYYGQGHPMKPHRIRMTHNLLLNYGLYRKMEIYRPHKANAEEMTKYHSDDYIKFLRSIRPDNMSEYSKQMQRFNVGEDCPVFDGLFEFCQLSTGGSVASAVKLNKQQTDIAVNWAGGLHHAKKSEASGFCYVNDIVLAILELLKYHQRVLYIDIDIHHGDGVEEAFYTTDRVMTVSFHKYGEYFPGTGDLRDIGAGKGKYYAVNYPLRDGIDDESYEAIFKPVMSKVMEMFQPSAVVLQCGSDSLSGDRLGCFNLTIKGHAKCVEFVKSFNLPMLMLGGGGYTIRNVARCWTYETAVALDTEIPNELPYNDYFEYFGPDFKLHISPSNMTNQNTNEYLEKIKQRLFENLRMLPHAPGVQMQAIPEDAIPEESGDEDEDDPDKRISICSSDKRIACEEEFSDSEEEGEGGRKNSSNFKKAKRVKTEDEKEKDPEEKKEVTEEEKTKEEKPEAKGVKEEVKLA
Description: as §2

[8] = biological target: HDAC4 (Homo sapiens (Human), UniProt P56524); test: HDAC inhibition assay; settings: read-out: IC50 HDAC4
HDAC4, sequence (P56524 whole entry): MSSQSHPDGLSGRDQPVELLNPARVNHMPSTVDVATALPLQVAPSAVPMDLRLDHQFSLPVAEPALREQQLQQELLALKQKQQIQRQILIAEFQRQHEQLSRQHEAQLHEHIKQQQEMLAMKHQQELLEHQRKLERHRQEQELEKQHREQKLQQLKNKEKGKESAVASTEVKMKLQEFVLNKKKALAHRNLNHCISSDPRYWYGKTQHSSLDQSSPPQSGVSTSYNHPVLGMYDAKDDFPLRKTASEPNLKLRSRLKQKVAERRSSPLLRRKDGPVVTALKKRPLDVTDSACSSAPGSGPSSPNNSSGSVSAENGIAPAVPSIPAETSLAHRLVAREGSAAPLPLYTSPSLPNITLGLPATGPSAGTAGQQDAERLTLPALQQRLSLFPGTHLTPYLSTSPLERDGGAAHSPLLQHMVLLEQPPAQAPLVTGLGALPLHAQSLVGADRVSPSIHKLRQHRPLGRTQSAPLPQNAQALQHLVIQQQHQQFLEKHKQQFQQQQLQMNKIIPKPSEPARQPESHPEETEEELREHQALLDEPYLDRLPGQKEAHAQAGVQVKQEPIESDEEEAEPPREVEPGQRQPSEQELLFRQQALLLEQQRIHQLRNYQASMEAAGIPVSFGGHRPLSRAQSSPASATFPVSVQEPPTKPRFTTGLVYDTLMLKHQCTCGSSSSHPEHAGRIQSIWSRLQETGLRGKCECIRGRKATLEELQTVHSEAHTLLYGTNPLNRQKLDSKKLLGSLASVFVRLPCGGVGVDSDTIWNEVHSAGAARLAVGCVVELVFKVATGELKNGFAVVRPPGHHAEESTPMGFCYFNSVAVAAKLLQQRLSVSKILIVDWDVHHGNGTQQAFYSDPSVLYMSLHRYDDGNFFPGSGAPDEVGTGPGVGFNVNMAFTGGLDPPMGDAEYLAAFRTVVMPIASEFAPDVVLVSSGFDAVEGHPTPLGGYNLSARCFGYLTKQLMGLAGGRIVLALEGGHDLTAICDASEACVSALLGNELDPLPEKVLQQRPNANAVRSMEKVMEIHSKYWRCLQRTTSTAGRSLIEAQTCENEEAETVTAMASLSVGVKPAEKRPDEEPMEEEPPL
Description: as §2

[9] = biological target: HDAC7 (Homo sapiens (Human), UniProt Q8WUI4); test: HDAC inhibition assay; settings: read-out: IC50 HDAC7
Description: as §2

[10] = biological target: HDAC2 (Homo sapiens (Human), UniProt Q92769); test: HDAC inhibition assay; format: biochemical
HDAC2, sequence (Q92769 whole entry): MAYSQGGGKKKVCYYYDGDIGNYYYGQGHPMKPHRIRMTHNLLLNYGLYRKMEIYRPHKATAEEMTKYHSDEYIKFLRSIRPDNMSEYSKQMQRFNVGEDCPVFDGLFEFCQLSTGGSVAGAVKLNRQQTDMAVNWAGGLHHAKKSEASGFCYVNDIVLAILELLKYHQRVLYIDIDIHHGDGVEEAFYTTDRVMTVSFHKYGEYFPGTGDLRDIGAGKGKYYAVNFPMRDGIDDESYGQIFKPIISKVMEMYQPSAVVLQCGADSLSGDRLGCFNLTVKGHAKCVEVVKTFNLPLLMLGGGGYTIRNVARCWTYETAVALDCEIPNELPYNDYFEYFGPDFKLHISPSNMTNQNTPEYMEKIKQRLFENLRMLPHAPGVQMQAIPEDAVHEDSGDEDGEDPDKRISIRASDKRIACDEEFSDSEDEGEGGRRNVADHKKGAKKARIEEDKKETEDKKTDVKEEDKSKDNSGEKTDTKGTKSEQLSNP
Description: as §1

| SMILES | VT (Ichese MAI), CN147 blocked ([1]; Cerebellum VOI) | VT (Logan Plot), CN147 blocked ([1]; Cerebellum VOI) | VT (Ichese MAI), % Difference ([1]; Cerebellum VOI) | VT (Logan Plot), % Difference ([1]; Cerebellum VOI) | blocking of [11C]CN133 binding ([1]; NHP whole brain and cerebellum) | VT (Ichese MAI), CN147 blocked ([1]; Whole Brain VOI) | VT (Logan Plot), CN147 blocked ([1]; Whole Brain VOI) | VT (Ichese MAI), % Difference ([1]; Whole Brain VOI) | VT (Logan Plot), % Difference ([1]; Whole Brain VOI) | pIC50 [2] | pIC50 [3] | pIC50 [4] | pIC50 [5] | pIC50 [6] | pIC50 [7] | pIC50 [8] | pIC50 [9] | pIC50 [10] |
| --- | --- | --- | --- | --- | --- | --- | --- | --- | --- | --- | --- | --- | --- | --- | --- | --- | --- | --- |
| CN(Cc1ccc(/C=C/C(=O)Nc2ccccc2N)cc1)CC12CC3CC(CC(C3)C1)C2 [CN147] | 11.68 ± 8.42 | 11.59 ± 3.37 | 39.95% | 39.89% | ~40% | 8.92 ± 9.26 | 8.85 ± 3.06 | 39.11% | 38.80% |  |  |  |  |  |  |  |  |  |
| CN(Cc1ccc2c(c1)CCC(C(=O)NO)=C2)CC12CC3CC(CC(C3)C1)C2 [CN141] |  |  |  |  |  |  |  |  |  | 7.01 | < 5.00 | 6.68 | 5.62 | 7.84 | 7.25 | 6.41 | 5.26 |  |
| O=C(/C=C/c1ccccc1)NO [CN86] |  |  |  |  |  |  |  |  |  | 6.82 | < 4.30 | < 5.00 | 6.14 | 7.66 | 6.88 | < 5.00 | < 4.70 | 6.33 |
| CN(c1ccccc1)S(=O)(=O)c1cccc(/C=C/C(=O)NO)c1 [CN88] |  |  |  |  |  |  |  |  |  | 7.86 | < 5.00 | 5.10 | 6.03 | 8.39 | 7.75 | 5.42 | 5.70 | 7.28 |
| CCCCc1nc2cc(/C=C/C(=O)NO)ccc2n1CCN(C)C [CN101] |  |  |  |  |  |  |  |  |  | 8.72 | < 4.30 | < 5.00 | 5.62 | 8.08 | 8.33 | < 5.00 | < 4.40 | 7.74 |
| COc1ccc2c(c1)C(=O)N(CCCCCC(=O)NO)c1ccccc1S2(=O)=O [CN113] |  |  |  |  |  |  |  |  |  | 8.89 | < 4.70 | 5.41 | 5.55 | 8.92 | 9.10 | 5.02 | 5.02 | 8.70 |
| COc1ccc2c(c1)C(=O)N(CCCCCC(=O)NO)c1ccccc1S2 [CN112] |  |  |  |  |  |  |  |  |  | 8.96 | 5.83 | < 4.70 | < 4.15 | 8.64 | 8.92 | < 5.00 |  | 8.40 |
| CNc1ccc(C(=O)NCCCCC(=O)NO)cc1 [CN51] |  |  |  |  |  |  |  |  |  | 7.07 |  |  |  |  | 6.97 |  |  | 6.32 |
| CN(C)c1ccc(C(=O)NCCCCCCC(=O)NO)cc1 [CN52] |  |  |  |  |  |  |  |  |  | 8.37 |  |  |  |  | 8.14 |  |  | 7.68 |
| CN(C)CCOc1ccc2c(c1)C(c1ccc(C(=O)NO)cc1)=Nc1ccccc1O2 [CN56] |  |  |  |  |  |  |  |  |  | 7.01 |  |  |  |  | 6.57 |  |  | 6.80 |
| COc1ccc(/C=C/C(=O)NO)cc1 [CN87] |  |  |  |  |  |  |  |  |  | 6.62 | < 4.15 | < 5.00 | 5.59 | 7.63 | 6.52 | < 4.15 | < 4.15 | 6.08 |
| CN(Cc1ccc(/C=C/C(=O)NO)cc1F)CC12CC3CC(CC(C3)C1)C2 [CN149] |  |  |  |  |  |  |  |  |  | 9.12 | < 4.30 | 5.32 | < 4.30 | 7.93 | 9.11 | 4.69 | < 4.30 |  |
| O=C(/C=C/c1ccc(CNCC2CCCCC2)cc1)NO [CN143] |  |  |  |  |  |  |  |  |  | 8.37 | < 5.00 | 6.71 | 5.02 | 8.01 | 8.74 | 6.03 | < 4.70 |  |
| CN(CCc1ccccc1)S(=O)(=O)c1cccc(/C=C/C(=O)NO)c1 [CN89] |  |  |  |  |  |  |  |  |  | 8.47 | < 5.00 | < 5.00 | 6.82 | 8.30 | 8.30 | 6.30 |  | 7.49 |
| CCCCN(Cc1ccc(C(=O)NO)cc1)C(=O)Nc1ccccc1OC [CN165] |  |  |  |  |  |  |  |  |  | 6.84 |  |  | 6.31 | 8.67 | 7.01 |  |  | 6.51 |
| CNc1ccc(C(=O)NCCCCCCC(=O)NO)cc1 [CN53] |  |  |  |  |  |  |  |  |  | 8.24 |  |  |  |  | 8.21 |  |  | 7.92 |
| Cn1cc(CCNCc2ccc(/C=C/C(=O)NO)cc2)c2ccccc21 [CN107] |  |  |  |  |  |  |  |  |  | 9.40 | 5.31 | 7.00 | 5.98 | 8.80 | 9.70 | 6.18 | 5.69 | 8.92 |
| CN(Cc1ccc(/C=C/C(=O)NO)cc1F)CC1CCCCC1 [CN167] |  |  |  |  |  |  |  |  |  | 8.32 |  |  | 5.74 | 7.73 | 8.27 |  |  | 7.40 |
| CN(C)Cc1ccc(/C=C/C(=O)NO)cc1 [CN145] |  |  |  |  |  |  |  |  |  | 5.03 |  | < 4.15 |  | 5.17 | < 4.30 |  |  |  |
| O=C(/C=C/c1ccc(CNCC23CC4CC(CC(C4)C2)C3)c(F)c1)NO [CN148] |  |  |  |  |  |  |  |  |  | 9.30 | < 4.30 | 5.37 | 5.31 | 8.02 | 9.11 | < 4.15 | < 4.30 | 8.19 |
| O=C(/C=C/c1ccc(CN(CCF)CC23CC4CC(CC(C4)C2)C3)cc1)NO [CN146] |  |  |  |  |  |  |  |  |  | 6.33 | < 4.40 | 5.27 | < 4.52 | 6.51 | 6.66 | < 5.00 | < 4.52 |  |
| O=C(/C=C/c1ccc(CNCC2CCCCC2)c(F)c1)NO [CN166] |  |  |  |  |  |  |  |  |  | 9.27 |  |  | 6.14 | 7.93 | 8.79 |  |  | 7.85 |
| O=C(/C=C/c1ccc(CNCC23CC4CC(CC(C4)C2)C3)cc1)NO [CN132] |  |  |  |  |  |  |  |  |  | 8.92 | < 5.00 |  | < 5.00 | 8.77 | 9.02 |  | < 4.70 | 8.11 |
